Assay results from ChEMBL document CHEMBL1201862, “PubChem BioAssay data set” (2004).
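Compound exposure: 48 hours, 5 concentrations, 96-well plates. The concentration for 50% growth inhibition is given as GI50.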 The source made the active and inactive calls. Rule as the data show it: active = GI50 up to about 1.1 µM and inactive = higher.

Tests used:
Assay in all cases: NCI tumour cell line growth inhibition, 48 h
786-0 = system: 786-0
A498 = system: A498
A549 = system: A549
ACHN = system: ACHN
CAKI-1 = system: CAKI-1
COLO 205 = system: COLO 205
DU-145 = system: DU-145
HOP-62 = system: HOP-62
HOP-92 = system: HOP-92
MDA-MB-435 = system: MDA-MB-435
Malme-3M = system: Malme-3M
NCI/ADR-RES = system: NCI/ADR-RES
SK-MEL-2 = system: SK-MEL-2
SNB-19 = system: SNB-19
SR = system: SR
SW-620 = system: SW-620
T47D = system: T47D
U-251 = system: U-251
UACC-257 = system: UACC-257
UO-31 = system: UO-31

Compound | GI50 (786-0) | GI50 (A498) | GI50 (A549) | GI50 (ACHN) | GI50 (CAKI-1) | GI50 (COLO 205) | GI50 (DU-145) | GI50 (HOP-62) | GI50 (HOP-92) | GI50 (MDA-MB-435) | GI50 (Malme-3M) | GI50 (NCI/ADR-RES) | GI50 (SK-MEL-2) | GI50 (SNB-19) | GI50 (SR) | GI50 (SW-620) | GI50 (T47D) | GI50 (U-251) | GI50 (UACC-257) | GI50 (UO-31)
O=C(O)C(Cc1cccs1)C(=O)O | > 100 µM (inactive) | > 100 µM (inactive) | > 100 µM (inactive) | > 100 µM (inactive) | > 100 µM (inactive) | > 100 µM (inactive) | > 100 µM (inactive) | > 100 µM (inactive) | > 100 µM (inactive) | > 100 µM (inactive) | > 100 µM (inactive) | > 100 µM (inactive) | > 100 µM (inactive) | > 100 µM (inactive) | > 100 µM (inactive) | > 100 µM (inactive) | > 100 µM (inactive) | > 100 µM (inactive) | > 100 µM (inactive) | > 100 µM (inactive)
CC(C)/C(=N\[N+](C)(C)C)c1ccccc1 | > 100 µM (inactive) | > 100 µM (inactive) | > 100 µM (inactive) | > 100 µM (inactive) | > 100 µM (inactive) | > 100 µM (inactive) | > 100 µM (inactive) | > 100 µM (inactive) | 69.3 µM (inactive) | > 100 µM (inactive) | > 100 µM (inactive) | > 100 µM (inactive) | > 100 µM (inactive) | > 100 µM (inactive) | > 100 µM (inactive) | > 100 µM (inactive) | > 100 µM (inactive) | > 100 µM (inactive) | > 100 µM (inactive) | > 100 µM (inactive)
CN(C)Cc1cc(C(=O)/C=C/c2ccc(F)cc2)cc(CN(C)C)c1O | 37.7 µM (inactive) | 24.5 µM (inactive) | 26.6 µM (inactive) | 14.6 µM (inactive) | 18.7 µM (inactive) |  | 42.2 µM (inactive) | 21.6 µM (inactive) | 29.2 µM (inactive) | 16.3 µM (inactive) | 17.7 µM (inactive) | 24.7 µM (inactive) |  | 25.4 µM (inactive) | 20.6 µM (inactive) | 20.4 µM (inactive) | 18 µM (inactive) | 24.4 µM (inactive) | 13.4 µM (inactive) | 13.4 µM (inactive)
COc1ccc(CNc2nc3cc(C(F)(F)F)ccc3nc2C(=O)O)cc1 | 23.1 µM (inactive) | 21.5 µM (inactive) | 28.8 µM (inactive) | 29.4 µM (inactive) | 35.8 µM (inactive) | 22.5 µM (inactive) | 26.7 µM (inactive) | 21.4 µM (inactive) | 20.3 µM (inactive) | 21.3 µM (inactive) |  | 24.3 µM (inactive) | 23.1 µM (inactive) | 31.2 µM (inactive) | 24.5 µM (inactive) | 31.1 µM (inactive) | 25.7 µM (inactive) | 28.6 µM (inactive) | 24.8 µM (inactive) | 17.8 µM (inactive)
COC(=O)/C=C1/OC(c2ccccc2)=CC1=O | 14.5 µM (inactive) | 13.7 µM (inactive) | 29 µM (inactive) | 13.5 µM (inactive) | 19.4 µM (inactive) | 15.9 µM (inactive) | 13.7 µM (inactive) | 21.6 µM (inactive) | 22.9 µM (inactive) | 18.3 µM (inactive) | 18.9 µM (inactive) | 23.2 µM (inactive) | 22.5 µM (inactive) | 17.3 µM (inactive) | > 23.4 µM (inactive) | 16.1 µM (inactive) | 20.9 µM (inactive) | 16.4 µM (inactive) | 24.7 µM (inactive) | 17.8 µM (inactive)
COC(=O)[C@]12CC[C@H]3CN(C(=O)OCc4ccccc4)[C@H]([C@H]31)[C@H](c1ccccc1)N2 | > 100 µM (inactive) | 80 µM (inactive) | 54.7 µM (inactive) | 92 µM (inactive) | 70.6 µM (inactive) | 92.9 µM (inactive) | > 100 µM (inactive) | > 100 µM (inactive) | 72.3 µM (inactive) | 52 µM (inactive) |  | 64.6 µM (inactive) | 59.7 µM (inactive) | > 100 µM (inactive) | 42.2 µM (inactive) | > 100 µM (inactive) | 34.3 µM (inactive) | > 100 µM (inactive) | 39.5 µM (inactive) | 67.3 µM (inactive)
CC1=NN(C(=O)CC(=O)Nc2cccc(C)c2)C(=O)C1/N=N/c1ccc(S(=O)(=O)CCOS(=O)(=O)O)cc1 (centres undefined) | 0.463 µM (active) | 11.5 µM (inactive) | 4.48 µM (inactive) | 4.72 µM (inactive) | 0.546 µM (active) | 2.45 µM (inactive) | 32.3 µM (inactive) | 5.47 µM (inactive) | 2.25 µM (inactive) | 0.211 µM (active) | 0.839 µM (active) | 0.344 µM (active) | 0.313 µM (active) | 4 µM (inactive) | 0.49 µM (active) | 0.406 µM (active) | > 34.5 µM (inactive) | 3.32 µM (inactive) | 7.71 µM (inactive) | 2.93 µM (inactive)
CC12Nc3c(Cl)cc(Cl)cc3N1C(=O)c1ccccc12 (centres undefined) | > 100 µM (inactive) | 18.5 µM (inactive) | > 100 µM (inactive) | > 100 µM (inactive) | > 100 µM (inactive) | > 100 µM (inactive) | > 100 µM (inactive) | > 100 µM (inactive) | 17.9 µM (inactive) | > 100 µM (inactive) | > 100 µM (inactive) | 91.8 µM (inactive) | > 100 µM (inactive) |  | 63.8 µM (inactive) | > 100 µM (inactive) | > 100 µM (inactive) | > 100 µM (inactive) | > 100 µM (inactive) | 52.7 µM (inactive)
CC(C)N(C(=O)C12C3(C(=O)OC(C)(C)C)C4C5(C#N)C3C1(C(=O)OC(C)(C)C)C5C42C(=O)OC(C)(C)C)C(C)C (centres undefined) | 34.6 µM (inactive) | > 100 µM (inactive) | 93.5 µM (inactive) | > 100 µM (inactive) | 37.3 µM (inactive) | 21.5 µM (inactive) | > 100 µM (inactive) | > 100 µM (inactive) | 8.32 µM (inactive) | 27.5 µM (inactive) |  | 76.4 µM (inactive) | > 100 µM (inactive) | > 100 µM (inactive) | 21.7 µM (inactive) | 24.9 µM (inactive) | 31.9 µM (inactive) | 83.9 µM (inactive) | 28.9 µM (inactive) | 60.4 µM (inactive)
COc1cc(/N=C\N(C)C)c2ncccc2c1 | 81.3 µM (inactive) | 42.7 µM (inactive) | 79.6 µM (inactive) | > 100 µM (inactive) | 86.3 µM (inactive) | > 100 µM (inactive) | > 100 µM (inactive) | > 100 µM (inactive) | 32.1 µM (inactive) | 28.5 µM (inactive) | > 100 µM (inactive) | 45.4 µM (inactive) | 46.2 µM (inactive) | > 100 µM (inactive) | 1.62 µM (inactive) |  | 78 µM (inactive) | 79.3 µM (inactive) | > 100 µM (inactive) | 52 µM (inactive)
O=C(CCCl)NN=C1NCCCN1 | > 100 µM (inactive) | > 100 µM (inactive) | > 100 µM (inactive) | > 100 µM (inactive) |  | > 100 µM (inactive) | > 100 µM (inactive) | > 100 µM (inactive) | > 100 µM (inactive) | > 100 µM (inactive) | > 100 µM (inactive) | > 100 µM (inactive) | > 100 µM (inactive) | > 100 µM (inactive) | > 100 µM (inactive) | > 100 µM (inactive) | > 100 µM (inactive) | > 100 µM (inactive) | > 100 µM (inactive) | > 100 µM (inactive)
O=c1c2ccccc2n2n1Cc1ccccc1C2 | > 100 µM (inactive) | > 100 µM (inactive) | > 100 µM (inactive) | > 100 µM (inactive) | > 100 µM (inactive) | > 100 µM (inactive) | > 100 µM (inactive) | > 100 µM (inactive) | > 100 µM (inactive) | > 100 µM (inactive) | > 100 µM (inactive) | > 100 µM (inactive) |  | > 100 µM (inactive) | > 100 µM (inactive) | > 100 µM (inactive) | > 100 µM (inactive) | > 100 µM (inactive) | > 100 µM (inactive) | 86.3 µM (inactive)
C=C(Br)CN(CC(=C)Br)C(C)=O | > 100 µM (inactive) | > 100 µM (inactive) | > 100 µM (inactive) | > 100 µM (inactive) | > 100 µM (inactive) | > 100 µM (inactive) | > 100 µM (inactive) | > 100 µM (inactive) |  | > 100 µM (inactive) | > 100 µM (inactive) | > 100 µM (inactive) | > 100 µM (inactive) | 78.9 µM (inactive) | > 100 µM (inactive) | > 100 µM (inactive) | > 100 µM (inactive) | > 100 µM (inactive) | > 100 µM (inactive) | > 100 µM (inactive)
C=C(C)OCOCCOC | > 100 µM (inactive) | > 100 µM (inactive) | > 100 µM (inactive) | > 100 µM (inactive) | > 100 µM (inactive) | > 100 µM (inactive) | > 100 µM (inactive) | > 100 µM (inactive) |  | > 100 µM (inactive) | > 100 µM (inactive) | > 100 µM (inactive) | > 100 µM (inactive) | > 100 µM (inactive) | > 100 µM (inactive) | > 100 µM (inactive) | > 100 µM (inactive) | > 100 µM (inactive) | > 100 µM (inactive) | > 100 µM (inactive)
